In ChEMBL document CHEMBL1201862, “PubChem BioAssay data set” (2004):
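Method: 48-hour compound exposure of cells in 96-well plates, five concentrations, linear interpolation of endpoints. The concentration for 50% growth inhibition is given as GI50.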 Calls of active or inactive are those of the source. Cut-off read from the data, not from the text of the source: active = GI50 up to about 1.1 µM and inactive = higher.

What was measured:
Assay in all cases: DTP human tumour cell line panel, 48 h
KM-20L2 = test system: KM-20L2
OVCAR-5 = test system: OVCAR-5
MCF7 = test system: MCF7
KM12 = test system: KM12
MDA-MB-231 = test system: MDA-MB-231
COLO 205 = test system: COLO 205
SF-268 = test system: SF-268
HL-60 = test system: HL-60
SN12C = test system: SN12C
BT-549 = test system: BT-549
MDA-MB-435 = test system: MDA-MB-435
SK-MEL-5 = test system: SK-MEL-5
NCI-H522 = test system: NCI-H522
SW-620 = test system: SW-620
DU-145 = test system: DU-145
UACC-62 = test system: UACC-62
HOP-92 = test system: HOP-92
SF-539 = test system: SF-539
HOP-62 = test system: HOP-62
TK-10 = test system: TK-10

`O=C(/C=C/c1ccc(OCCSCCCCCCCCCCSCCOc2ccc(/C=C/C(=O)c3ccc(Cl)cc3)cc2)cc1)c1ccc(Cl)cc1` was tested, and the GI50 (KM-20L2) was > 100 µM (inactive), the GI50 (OVCAR-5) was > 100 µM (inactive) and the GI50 (MCF7) was > 100 µM (inactive). For the same compound, the GI50 (KM12) was > 100 µM (inactive), the GI50 (MDA-MB-231) was > 100 µM (inactive) and the GI50 (COLO 205) was > 100 µM (inactive). For the same compound, the GI50 (SF-268) was 76 µM (inactive), the GI50 (HL-60) was > 100 µM (inactive) and the GI50 (SN12C) was > 100 µM (inactive). For the same compound, the GI50 (BT-549) was > 100 µM (inactive), the GI50 (MDA-MB-435) was > 100 µM (inactive) and the GI50 (SK-MEL-5) was > 100 µM (inactive). For the same compound, the GI50 (NCI-H522) was > 89.3 µM (inactive), the GI50 (SW-620) was > 100 µM (inactive) and the GI50 (DU-145) was > 100 µM (inactive). For the same compound, the GI50 (UACC-62) was > 80.9 µM (inactive), the GI50 (HOP-92) was 47.4 µM (inactive) and the GI50 (SF-539) was 45.6 µM (inactive). The GI50 (HOP-62) was 51.2 µM (inactive) and the GI50 (TK-10) was > 100 µM (inactive).

With `COC(=O)C(C(=O)C(=O)Nc1ccc(C)cc1C)c1nc2ccc([N+](=O)[O-])cc2nc1O` (stereo not given) the GI50 (KM-20L2) was > 100 µM (inactive), the GI50 (OVCAR-5) was > 100 µM (inactive) and the GI50 (KM12) was > 100 µM (inactive). For the same compound, the GI50 (COLO 205) was 95.7 µM (inactive), the GI50 (SF-268) was > 100 µM (inactive) and the GI50 (HL-60) was 34.8 µM (inactive). For the same compound, the GI50 (SN12C) was > 100 µM (inactive), the GI50 (SK-MEL-5) was > 100 µM (inactive) and the GI50 (NCI-H522) was 60.3 µM (inactive). For the same compound, the GI50 (SW-620) was > 100 µM (inactive), the GI50 (UACC-62) was > 100 µM (inactive) and the GI50 (HOP-92) was > 100 µM (inactive). For the same compound, the GI50 (SF-539) was > 100 µM (inactive), the GI50 (HOP-62) was > 100 µM (inactive) and the GI50 (TK-10) was > 100 µM (inactive).

`O=C1C(Br)=C(Br)C(=O)c2ccc(=O)ccc21` was tested, and the GI50 (KM-20L2) was > 100 µM (inactive), the GI50 (OVCAR-5) was 50.5 µM (inactive) and the GI50 (MCF7) was 18.6 µM (inactive). For the same compound, the GI50 (KM12) was 46.8 µM (inactive), the GI50 (MDA-MB-231) was 19.9 µM (inactive) and the GI50 (COLO 205) was 13.3 µM (inactive). The GI50 (SF-268) was 30.3 µM (inactive), the GI50 (HL-60) was 8.47 µM (inactive) and the GI50 (SN12C) was 19.1 µM (inactive). For the same compound, the GI50 (BT-549) was 24.2 µM (inactive), the GI50 (MDA-MB-435) was 18.7 µM (inactive) and the GI50 (SK-MEL-5) was 21 µM (inactive). For the same compound, the GI50 (NCI-H522) was 2.67 µM (inactive), the GI50 (SW-620) was 20.8 µM (inactive) and the GI50 (DU-145) was > 100 µM (inactive). For the same compound, the GI50 (UACC-62) was 19.5 µM (inactive), the GI50 (HOP-92) was 18.5 µM (inactive) and the GI50 (SF-539) was 24.7 µM (inactive). For the same compound, the GI50 (HOP-62) was 60.1 µM (inactive) and the GI50 (TK-10) was 18.7 µM (inactive).

With `CCOP(=O)(OCC)/C(C#N)=C\c1cccc2ccccc12` the GI50 (KM-20L2) was > 100 µM (inactive), the GI50 (OVCAR-5) was > 100 µM (inactive) and the GI50 (MCF7) was 39.9 µM (inactive). The GI50 (KM12) was > 74.8 µM (inactive), the GI50 (MDA-MB-231) was 40.6 µM (inactive) and the GI50 (COLO 205) was 91.8 µM (inactive). The GI50 (SF-268) was 21.4 µM (inactive), the GI50 (HL-60) was 23 µM (inactive) and the GI50 (SN12C) was 82.4 µM (inactive). The GI50 (BT-549) was 51.9 µM (inactive), the GI50 (MDA-MB-435) was 34.7 µM (inactive) and the GI50 (SK-MEL-5) was 39.5 µM (inactive). The GI50 (NCI-H522) was > 88.1 µM (inactive), the GI50 (SW-620) was 68.5 µM (inactive) and the GI50 (DU-145) was 57.9 µM (inactive). For the same compound, the GI50 (UACC-62) was 35.5 µM (inactive), the GI50 (HOP-92) was 23 µM (inactive) and the GI50 (SF-539) was > 56 µM (inactive). The GI50 (HOP-62) was > 56.6 µM (inactive) and the GI50 (TK-10) was > 100 µM (inactive).

`CCCOc1ccc(/C=C/c2cc(OC)c(OC)c(OC)c2)cc1` was tested, and the GI50 (KM-20L2) was 0.2 µM (active), the GI50 (OVCAR-5) was 28 µM (inactive) and the GI50 (KM12) was 0.305 µM (active). The GI50 (COLO 205) was 0.298 µM (active), the GI50 (SF-268) was 0.618 µM (active) and the GI50 (HL-60) was 0.155 µM (active). The GI50 (SN12C) was 0.635 µM (active), the GI50 (SK-MEL-5) was 0.144 µM (active) and the GI50 (NCI-H522) was 0.175 µM (active). The GI50 (SW-620) was 0.218 µM (active), the GI50 (UACC-62) was 0.215 µM (active) and the GI50 (HOP-92) was 0.347 µM (active). For the same compound, the GI50 (SF-539) was 0.269 µM (active), the GI50 (HOP-62) was 0.265 µM (active) and the GI50 (TK-10) was 55.1 µM (inactive).

`Nc1nc(SCc2ccccc2[N+](=O)[O-])c2[nH]cnc2n1` was tested, and the GI50 (KM-20L2) was > 100 µM (inactive), the GI50 (OVCAR-5) was 42.3 µM (inactive) and the GI50 (MCF7) was 51.5 µM (inactive). The GI50 (KM12) was > 57.7 µM (inactive), the GI50 (MDA-MB-231) was 39.4 µM (inactive) and the GI50 (COLO 205) was > 45 µM (inactive). The GI50 (SF-268) was > 35.7 µM (inactive), the GI50 (HL-60) was > 53.6 µM (inactive) and the GI50 (SN12C) was > 57.1 µM (inactive). For the same compound, the GI50 (BT-549) was 26.2 µM (inactive), the GI50 (MDA-MB-435) was 36 µM (inactive) and the GI50 (SK-MEL-5) was 18.9 µM (inactive). The GI50 (NCI-H522) was > 31.8 µM (inactive), the GI50 (SW-620) was > 73.6 µM (inactive) and the GI50 (DU-145) was 44.7 µM (inactive). The GI50 (UACC-62) was 37.3 µM (inactive), the GI50 (HOP-92) was 2.23 µM (inactive) and the GI50 (SF-539) was > 100 µM (inactive). The GI50 (HOP-62) was > 69.5 µM (inactive) and the GI50 (TK-10) was > 34.8 µM (inactive).

`O=C(c1ccco1)N(C(=S)N1CCN(c2ccccc2)CC1)c1ccccc1` was tested, and the GI50 (KM-20L2) was > 100 µM (inactive), the GI50 (OVCAR-5) was > 100 µM (inactive) and the GI50 (KM12) was > 100 µM (inactive). For the same compound, the GI50 (COLO 205) was > 100 µM (inactive), the GI50 (SF-268) was > 100 µM (inactive) and the GI50 (HL-60) was > 100 µM (inactive). For the same compound, the GI50 (SN12C) was > 100 µM (inactive), the GI50 (SK-MEL-5) was > 100 µM (inactive) and the GI50 (NCI-H522) was > 100 µM (inactive). For the same compound, the GI50 (SW-620) was > 100 µM (inactive), the GI50 (UACC-62) was > 100 µM (inactive) and the GI50 (HOP-92) was > 100 µM (inactive). The GI50 (SF-539) was > 100 µM (inactive), the GI50 (HOP-62) was > 100 µM (inactive) and the GI50 (TK-10) was > 100 µM (inactive).

`CNC(C)Cc1ccccc1O` (stereo not given) was tested, and the GI50 (KM-20L2) was > 100 µM (inactive), the GI50 (OVCAR-5) was > 100 µM (inactive) and the GI50 (KM12) was > 100 µM (inactive). For the same compound, the GI50 (COLO 205) was > 100 µM (inactive), the GI50 (SF-268) was > 100 µM (inactive) and the GI50 (HL-60) was > 100 µM (inactive). The GI50 (SN12C) was > 100 µM (inactive), the GI50 (SK-MEL-5) was > 100 µM (inactive) and the GI50 (NCI-H522) was > 100 µM (inactive). For the same compound, the GI50 (SW-620) was > 100 µM (inactive), the GI50 (UACC-62) was > 100 µM (inactive) and the GI50 (HOP-92) was > 100 µM (inactive). The GI50 (SF-539) was > 100 µM (inactive), the GI50 (HOP-62) was > 100 µM (inactive) and the GI50 (TK-10) was > 100 µM (inactive).

For `Cc1ccc(C(=O)C(C)N)cc1` (stereo not given), the GI50 (KM-20L2) was > 100 µM (inactive), the GI50 (OVCAR-5) was > 100 µM (inactive) and the GI50 (KM12) was > 100 µM (inactive). For the same compound, the GI50 (COLO 205) was > 100 µM (inactive), the GI50 (SF-268) was > 100 µM (inactive) and the GI50 (HL-60) was > 100 µM (inactive). The GI50 (SN12C) was > 100 µM (inactive), the GI50 (SK-MEL-5) was > 100 µM (inactive) and the GI50 (NCI-H522) was > 100 µM (inactive). The GI50 (SW-620) was > 100 µM (inactive), the GI50 (UACC-62) was > 100 µM (inactive) and the GI50 (HOP-92) was > 100 µM (inactive). The GI50 (SF-539) was > 100 µM (inactive), the GI50 (HOP-62) was > 100 µM (inactive) and the GI50 (TK-10) was > 100 µM (inactive).

`CN1CC[C@]2(C)c3cc(O)ccc3CC3CCCC1C32C` (stereo not given in full) was tested, and the GI50 (KM-20L2) was > 100 µM (inactive), the GI50 (OVCAR-5) was > 100 µM (inactive) and the GI50 (KM12) was > 100 µM (inactive). The GI50 (COLO 205) was > 100 µM (inactive), the GI50 (SF-268) was > 100 µM (inactive) and the GI50 (HL-60) was > 100 µM (inactive). The GI50 (SN12C) was > 100 µM (inactive), the GI50 (SK-MEL-5) was > 100 µM (inactive) and the GI50 (NCI-H522) was > 100 µM (inactive). For the same compound, the GI50 (SW-620) was > 100 µM (inactive), the GI50 (UACC-62) was > 100 µM (inactive) and the GI50 (HOP-92) was > 100 µM (inactive). For the same compound, the GI50 (SF-539) was > 100 µM (inactive), the GI50 (HOP-62) was > 100 µM (inactive) and the GI50 (TK-10) was > 100 µM (inactive).

For `Cc1nc(N)nc(N)c1CCCCc1ccc(N)cc1`, the GI50 (KM-20L2) was 3.74 µM (inactive), the GI50 (OVCAR-5) was 4.46 µM (inactive) and the GI50 (KM12) was 9.35 µM (inactive). For the same compound, the GI50 (COLO 205) was 10.4 µM (inactive), the GI50 (SF-268) was 0.995 µM (active) and the GI50 (HL-60) was 3.07 µM (inactive). For the same compound, the GI50 (SN12C) was 4.3 µM (inactive), the GI50 (SK-MEL-5) was 3.43 µM (inactive) and the GI50 (NCI-H522) was 4.26 µM (inactive). For the same compound, the GI50 (SW-620) was 3.29 µM (inactive), the GI50 (UACC-62) was 1.86 µM (inactive) and the GI50 (HOP-92) was 3.93 µM (inactive). For the same compound, the GI50 (SF-539) was 7.98 µM (inactive), the GI50 (HOP-62) was 5.11 µM (inactive) and the GI50 (TK-10) was 11.5 µM (inactive).
